Data from ChEMBL document CHEMBL5113371, “Lipolytic enzymes inhibitors: A new way for antibacterial drugs discovery” (Eur J Med Chem, 2021).
≈ marks a conversion by molar mass, not a printed value.

What was measured:
[1] = tested on: Mycobacterium tuberculosis H37Rv; assay: Antibacterial activity against Mycobacterium tuberculosis H37Rv expressing GFP incubated for 7 days; format: functional, Mycobacterium tuberculosis variant bovis
[2] = tested on: Mycobacterium tuberculosis H37Rv; assay: Antibacterial activity against Mycobacterium tuberculosis H37Rv expressing GFP infected in mouse Raw264.7 cells incubated for 5 days by SYTO 60 staining method; format: functional
[3] = tested on: Mycobacterium tuberculosis variant bovis; assay: Antibacterial activity against VLDL-treated Mycobacterium bovis BCG assessed as level of intrabacterial lipid inclusions profile relative to control; format: functional
[4] = Mycobacterium tuberculosis variant bovis, time 5.0 day

`CCCCCCCCCCCCCCCCOP1(=O)OCCC(C(=O)OC)=C(C)O1` (centres undefined) was tested, and the MIC50 ([1]; 168 h, time 7 day) was 0.5 µM (≈ 0.223 µg/mL) and the MIC50 [2, 4] was “NE”.

With `CCCCCCCCCCCCCCCCO[P@]1(=O)OC[C@H]2COC(=O)C2=C(C)O1` the MIC50 ([1]; 168 h, time 7 day) was 1.7 µM (≈ 0.756 µg/mL) and the MIC50 [2, 4] was “NE”.

In the case of `O=c1oc(OCCOCc2ccccc2)nn1-c1ccccc1`, the MIC50 ([1]; 168 h, time 7 day) is reported as 30.8 µM (≈ 9.62 µg/mL) and the MIC50 [2, 4] is reported as “NE”.

In the case of `CCCCC[C@H]1CC[P@@](=O)(OC)OC(C)=C1C(=O)OC`, the MIC50 ([1]; Mycobacterium tuberculosis variant bovis, time 7.0 day) is reported as “NE”.

In the case of `CCCCCCOc1nn(-c2ccccc2)c(=O)o1`, the MIC50 ([1]; 168 h, time 7 day) is reported as 44.6 µM (≈ 11.7 µg/mL) and the MIC50 [2, 4] is reported as “NE”.

In the case of `CCCCCCCCCCCCCCCCO[P@]1(=O)OC[C@@H]2COC(=O)C2=C(C)O1`, the MIC50 [2, 4] is reported as “NE”.

`CO[C@H]1/C=C/O[C@@]2(C)Oc3c(C)c(O)c4c(O)c(c(/C=N/N5CCN(C)CC5)c(O)c4c3C2=O)NC(=O)/C(C)=C\C=C\[C@H](C)[C@H](O)[C@@H](C)[C@@H](O)[C@@H](C)[C@H](OC(C)=O)[C@@H]1C` [RIFAMPIN] was tested, and the MIC50 ([1]; 168 h, time 7 day) was 0.01 µM (≈ 0.00823 µg/mL) and the MIC50 ([2]; 120 h, time 5 day) was 2.9 µM (≈ 2.39 µg/mL).

`CC(C)COc1nn(-c2ccc(Oc3ccccc3)cc2)c(=O)o1` gave an MIC50 ([1]; 168 h, time 7 day) of 32 µM (≈ 10.4 µg/mL) and an MIC50 ([2]; 120 h, time 5 day) of 8.5 µM (≈ 2.77 µg/mL).

Compound `NNC(=O)c1ccncc1` [ISONIAZID] has an MIC50 ([1]; 168 h, time 7 day) of 1.2 µM (≈ 0.165 µg/mL) and an MIC50 ([2]; 120 h, time 5 day) of 1.2 µM (≈ 0.165 µg/mL).

`CCCCCCCCCCCC[C@@H]1CC[P@@](=O)(OC)OC(C)=C1C(=O)OC` was tested, and the MIC50 ([1]; 168 h, time 7 day) was 40.4 µM (≈ 16.3 µg/mL) and the MIC50 ([2]; 120 h, time 5 day) was 4 µM (≈ 1.61 µg/mL).

For `COc1nn(-c2cccc(Oc3ccccc3)c2)c(=O)o1`, the Activity [3] was 90%.

Work on `CCCCCCOc1nn(-c2ccc(Oc3ccccc3)cc2)c(=O)o1` yielded an MIC50 ([1]; 168 h, time 7 day) greater than 50 µM and an MIC50 ([2]; 120 h, time 5 day) of 9.5 µM (≈ 3.37 µg/mL).

`CC(C)COc1nn(-c2ccccc2)c(=O)o1` showed an MIC50 ([1]; 168 h, time 7 day) greater than 50 µM and an MIC50 ([2]; 120 h, time 5 day) of 17.1 µM (≈ 4.01 µg/mL).

Work on `O=c1oc(OCCOCc2ccccc2)nn1-c1ccc(Oc2ccccc2)cc1` yielded an MIC50 ([1]; 168 h, time 7 day) greater than 50 µM and an MIC50 ([2]; 120 h, time 5 day) of 3.5 µM (≈ 1.42 µg/mL).

Compound `CCCCCCCCCCCC[C@H]1CC[P@@](=O)(OC)OC(C)=C1C(=O)OC` has an MIC50 ([1]; 168 h, time 7 day) greater than 100 µM.

`CCCCCCCCCC[C@@H]1CC[P@@](=O)(OC)OC(C)=C1C(=O)OC` was tested, and the MIC50 ([2]; 120 h, time 5 day) was 4.5 µM (≈ 1.69 µg/mL).

In the case of `CCCCCCCCCC[C@H]1CC[P@@](=O)(OC)OC(C)=C1C(=O)OC`, the MIC50 ([1]; 168 h, time 7 day) is reported as 16.6 µM (≈ 6.22 µg/mL) and the MIC50 ([2]; 120 h, time 5 day) is reported as 3.1 µM (≈ 1.16 µg/mL).
